Experimental data reported in patent US20240108595A1, “COMPOSITIONS AND METHODS FOR REVERSING AGE-ASSOCIATED DENDRITIC SPINE LOSS” (UNIVERSITY OF PITTSBURGH - OF THE COMMONWEALTH SYSTEM OF …, priority 2022, published 2024).

Tests used:
[1] = mouse, in vivo, ip, 100 mg/kg
Experimental: Drug administration and animal studies. […] A modified tolerability score was used to estimate drug tolerability. […] Male and female 15-month-old WT mice were randomly allocated to receive either 25 mg/kg amlexanox (n=9) or equivalent volume vehicle (n=10) for 5 days. Treatment groups were balanced for sex. On day 5, mice were sacrificed, perfused with normal saline, and the right cerebral cortex was isolated and immediately frozen on dry ice for proteomics.

[2] = test system: Fibroblast Growth Factor Receptor 2 (FGFR2); test: Cerebral cortex proteomics (LC-MS) after amlexanox treatment of mice; type: in vivo, mouse; conditions: 15-month-old WT mice, 25 mg/kg amlexanox for 5 days, right cerebral cortex; unadjusted p value of log2 fold change=0.0012
Experimental: Drug administration and animal studies. […] Treatment groups were balanced for sex.
Sample Preparation. Tissue homogenate was obtained using a Bead Mill Fast Prep-24 (MP Biomedicals). Tissue was transferred into a Lysing Matrix D tube with 750 μl of homogenization solution (5% SDS with MS-SAFE Protease and Phosphatase Inhibitor) and homogenized at 6 m/s for 40 s. Homogenate was centrifuged at 13.2×g for 10 min, the supernatant was transferred to a microcentrifuge tube and total protein was quantified with BCA.
10 μg of protein from each subject was digested with trypsin at a ratio of 1:20 using S-trap micro columns (Protifi) and desalted using Pierce Peptide Desalting Spin Columns (ThermoFisher Scientific). […]
Peptide Data Analysis. Raw data files were analyzed with Proteome Discoverer (ThermoFisher Scientific) and searched against the mouse SwissProt database using Sequest HT (missed cleavages=2; minimum peptide length=6; precursor mass tolerance=10 ppm; dynamic modifications: Oxidation/+15.995 Da, Acetyl/+42.011 Da, Met-loss/−131.040 Da, Met-loss+Acetyl/[…]; static modifications: Carbamidomethyl/+57.021 Da). […]
Statistical Analysis. […] Proteins with a combined Q-value=0.01 or greater, not quantified in 100% of samples or with CV>0.3 in pooled controls were filtered out. […]
2860 proteins were quantified in all mice. […] Other Fibroblast Growth Factor Receptors were not quantified in our assay.

[3] = test system: mouse cerebral cortex proteome; test: Signed Jaccard Index: overlap of amlexanox-induced protein perturbations in mice with effects of proteins on dendritic spines in humans; type: in vivo; conditions: amlexanox/control log2 protein abundances in mouse cerebral cortex vs effects of each protein on density of large dendritic spines in human cohort
Experimental: then the net effect of amlexanox treatment was evaluated on proteins which, in our human data, were associated with age related dendritic spine density reductions. The Signed Jaccard Index (SJI) was calculated to estimate the net overlap of amlexanox-induced protein perturbations in mice with the effects of proteins on dendritic spines in humans. The relative log2-transformed abundances for each protein in amlexanox/control groups were compared with the effects of each protein on the density of large dendritic spines extracted from the mediation analysis from our human cohort (described in Example 1) as follows:
An SJI of 0.013 compares favorably to the mean SJI reported for all drug-disease indication pairs (absolute value=0.004), indicating it is compatible with therapeutic activity. However, the SJI of 0.013 observed was lower in magnitude than the mean SJI reported for drug-disease pairs indicated specifically for CNS disorders (absolute value=0.033).

**Q.** Which modified tolerability score [1] does the source give for `CC(C)c1ccc2oc3nc(N)c(C(=O)O)cc3c(=O)c2c1` [amlexanox, Amlexanox] here?
**A.** elevated tolerability scores

**Q.** What about the “relative abundance of FGFR2 (amlexanox/control)” value [2] of the same molecule?
**A.** 0.69

**Q.** What about the “Signed Jaccard Index (SJI)” value [3] of the same molecule?
**A.** 0.013
